Experimental data: patent publication US9932300B2, “N,N′-diarylurea compounds and N,N′-diarylthiourea compounds as inhibitors of translation initiation” (President and Fellows of Harvard College, priority 2009, dated 2018)
Several values for one entry are separate records, joined by “and”; a condition that tells them apart may be missing. Identical values can stand only once.

Test system: eIF2-GTP-Met-tRNAi ternary complex
Test: Ternary complex assay (dual luciferase, firefly/renilla ratio) in stable KLN-tTA/pBISA-DL(ATF-4) cells; HTS and hit confirmation
Format: cell-based, mouse
Set-up: Activity 10 uM / Activity 2.5 uM / Activity 5 uM: unit not given here
Details: confirmed hits of the screen (Table 5); for Activity 2.5 uM: compound at 2.5 uM; for Activity 10 uM: compound at 10 uM

CC(C)(C)c1ccc(C(=O)C[n+]2ccc(Cl)c3ccc(Cl)cc32)cc1.[Br-] [Compound 402826]
Activity 2.5 uM: 0.85 | Activity 10 uM: 5.42

Cc1ccc([As]=[As]c2ccc(C)cc2N)c(N)c1.Cl (stereo not shown) [Compound 402866]
Activity 2.5 uM: 1.66 | Activity 10 uM: 26.02

NS(=O)(=O)c1ccc(NC(=S)Nc2ccc(S(=O)(=O)Nc3nccs3)cc2)cc1 [Compound 403440]
Activity 2.5 uM: 1.41 | Activity 10 uM: 3.83

COC1OC(CI)C(OC(=O)c2ccccc2)C(OC(=O)c2ccccc2)C1OC(=O)c1ccccc1 (stereo not shown) [Compound 403488]
Activity 2.5 uM: 1.55 | Activity 10 uM: 4.41

CCOc1ccc2c(c1)/C(=C\C=C\C1CC(C)C3CC(OCC)CCC3N1CC)CC(C)N2CC (stereo not shown) [Compound 403534]
Activity 2.5 uM: 7.33 | Activity 10 uM: 9.9

Cc1ccc(NC(=O)c2ccc(Cl)cc2Cl)cc1 [Compound 405522]
Activity 2.5 uM: 2.47 | Activity 10 uM: 3.69

CCCCN=C(C)CC(=O)CC(=O)c1ccccc1 [Compound 406018]
Activity 2.5 uM: 1.51 | Activity 10 uM: 4.09

Cc1ccc(C23C=CC(c4ccccc4)(C2)C2C(=O)OC(=O)C23)cc1 (stereo not shown) [Compound 406824]
Activity 2.5 uM: 1.76 | Activity 10 uM: 4.25

F[B-](F)(F)F.c1ccc([P+](c2ccccc2)(c2ccccc2)c2ccccc2)cc1 [Compound 407396]
Activity 2.5 uM: 1.72 | Activity 10 uM: 4.74

CC(=O)Oc1cc2c(c3ccc4ccccc4c13)CCc1ccccc1-2 [Compound 407658]
Activity 2.5 uM: 1.57 | Activity 10 uM: 5.17

O=C1C=CC(=Nc2ccc3c(c2)Cc2cc(Br)ccc2-3)O1 [Compound 408380]
Activity 2.5 uM: 2.28 | Activity 10 uM: 4.36

O=C1C=CC(=O)N1c1ccc2c(c1)Cc1cc(NC(=O)C(F)(F)F)ccc1-2 [Compound 408383]
Activity 2.5 uM: 0.84 | Activity 10 uM: 10.77

CN(C)c1ccc(/C=C/c2nccc3ccccc23)cc1 [Compound 408399]
Activity 2.5 uM: 1.63 | Activity 10 uM: 3.42

Cc1cc2c(C(C)C)c(O)c(O)c(C=Nc3ccccc3[N+](=O)[O-])c2c(O)c1-c1c(C)cc2c(C(C)C)c(O)c(O)c(C=Nc3ccccc3[N+](=O)[O-])c2c1O [Compound 408711]
Activity 2.5 uM: 1.47 | Activity 10 uM: 21.88

Cc1cc2c(C(C)C)c(O)c(O)c(C=Nc3ccc([N+](=O)[O-])cc3)c2c(O)c1-c1c(C)cc2c(C(C)C)c(O)c(O)c(C=Nc3ccc([N+](=O)[O-])cc3)c2c1O [Compound 408712]
Activity 2.5 uM: 1.57 | Activity 10 uM: 21.65

Nc1ccc(O)c(-c2ccccc2)c1 [Compound 409777]
Activity 2.5 uM: 20.85 | Activity 10 uM: 5.55

C(=N\Nc1ccc2ccccc2n1)/c1ccccn1 [Compound 527347]
Activity 2.5 uM: 2.551 | Activity 10 uM: 5.591

CCN(CC)C1=C/CC/C(c2ccccc2)=N/N=C\1c1ccccc1 [Compound 601076]
Activity 2.5 uM: 2.48 | Activity 10 uM: 3.17

Cc1ccc2occ/c(=N\Nc3ccccc3)c2c1 [Compound 601994]
Activity 2.5 uM: 3.42 | Activity 10 uM: 5.21

O=Cc1c(-c2ccccc2)nc2sc(-c3ccc4c(c3)OCO4)nn12 [Compound 602807]
Activity 2.5 uM: 2.08 | Activity 10 uM: 3.12

C=C(CN1CCCC1)C(=O)c1ccc(OC)cc1.Cl [Compound 603554]
Activity 2.5 uM: 0.35 | Activity 10 uM: 8.45

CC(C)(C)C1=CC(=CC=C2C=CN(CCCCCCCCCCCO)C=C2)C=C(C(C)(C)C)C1=O [Compound 603854]
Activity 2.5 uM: 0.93 | Activity 10 uM: 4.19

Cl.NC[CH2][Sn]([c]1ccccc1)([CH]1CCCCC1)[CH]1CCCCC1 [Compound 604861]
Activity 2.5 uM: 0.8 | Activity 10 uM: 4.82

Cc1c2c(c(C)c3c1C(=O)c1cc4c(cc1C3=O)OCO4)OC(C)(C)O2 [Compound 604868]
Activity 2.5 uM: 0.86 | Activity 10 uM: 5.36

O=C(N/N=C/c1ccccc1O)c1ccccc1.[Cu+2] [Compound 607085]
Activity 2.5 uM: 2.21 | Activity 10 uM: 3.55

CN(C)c1ccc(N=Nc2cccc(C(=O)[O-])c2)cc1.CN(C)c1ccc(N=Nc2cccc(C(=O)[O-])c2)cc1.NC1CCCCC1N.O=[N+]([O-])O.[Pt+4] [Compound 608144]
Activity 2.5 uM: 3.82 | Activity 10 uM: 112.47

C(=N\Nc1ccc2ccccc2n1)/c1ccccn1.CC(=O)[O-].CC(=O)[O-].[Zn+2] [Compound 609211]
Activity 2.5 uM: 5.68 | Activity 10 uM: 18.74

Cn1cc(/C=C/C(=O)c2ccccc2[N+](=O)[O-])c2ccccc21 [Compound 609810]
Activity 2.5 uM: 2.44 | Activity 10 uM: 4.69

O=C(N/N=C/c1ccccc1[O-])c1ccccc1O.O=C(N/N=C/c1ccccc1[O-])c1ccccc1O.[Mn+2] [Compound 610051]
Activity 2.5 uM: 1.52 | Activity 10 uM: 9.23

COC(=O)C1CCC(/C(C#N)=C2/CCC(C(=O)OC)[N-]2)=N1.COC(=O)C1CCC(/C(C#N)=C2/CCC(C(=O)OC)[N-]2)=N1.[Cu+2] (stereo not shown) [Compound 617738]
Activity 2.5 uM: 1.05 | Activity 10 uM: 7.65

CN1C/C(=C\c2ccccc2)C(=O)/C(=C/c2ccccc2)C1.Cl [Compound 618767]
Activity 2.5 uM: 0.7 | Activity 10 uM: 6.58

[Cl][Sn]([CH2][CH2][Sn]([Cl])([c]1ccccc1)[c]1ccccc1)([c]1ccccc1)[c]1ccccc1 [Compound 620291]
Activity 2.5 uM: 8.39 | Activity 10 uM: 9.07

CCC[CH2][Sn]([Cl])([CH2]CCC)[S]/C(C#N)=N/N=C/c1ccc(N(C)C)cc1 [Compound 620296]
Activity 2.5 uM: 5.24 | Activity 10 uM: 3.13

C[n+]1[se]nc2ccccc21.Cc1ccc(S(=O)(=O)[O-])cc1 [Compound 620852]
Activity 2.5 uM: 4.79 | Activity 10 uM: 16.94

Cc1c(C(=O)/C=C/c2ccccc2[N+](=O)[O-])[n+](=O)c2ccccc2n1[O-] [Compound 621482]
Activity 2.5 uM: 1.17 | Activity 10 uM: 5.15

Cc1cc2c(cc1C)[n+]([O-])c(-c1nc3ccccc3s1)c(N)[n+]2[O-] [Compound 621504]
Activity 2.5 uM: 14.68

COc1ccccc1NC(=S)N/N=C\c1cc(N=Nc2ccccc2)cc(OC)c1O [Compound 621792]
Activity 2.5 uM: 1.27 | Activity 10 uM: 3.75

COc1cc(N=Nc2ccccc2)cc(/C=N/NC(=S)Nc2ccccc2)c1[O-].COc1cc(N=Nc2ccccc2)cc(/C=N/NC(=S)Nc2ccccc2)c1[O-].[Cu+2] [Compound 621794]
Activity 2.5 uM: 9.24 | Activity 10 uM: 6.6

CSC(=Nc1ccccc1)/N=C(\SCc1ccccc1)N(C)C.I [Compound 622579]
Activity 10 uM: 6.29 and 10.08

CN(C)C1=NC2=S(SC(Nc3ccccc3)=N2)S1 (stereo not shown) [Compound 622683]
Activity 2.5 uM: 2.84 | Activity 10 uM: 3.82

BrC(Br)=C1C(=C(Br)Br)C(Br)C1Br (stereo not shown) [Compound 624851]
Activity 2.5 uM: 12.65

CC(=O)[O-].[O-]c1c(Cl)cc(Cl)cc1/C=N/Nc1ccccn1.[Zn+2] [Compound 625863]
Activity 2.5 uM: 3.75 | Activity 10 uM: 3.72

COc1ccc2c(c1)CCc1c(CO)c(COC(=O)NC(C)C)n(C)c1-2 [Compound 627459]
Activity 2.5 uM: 1.68 | Activity 10 uM: 7.21

CCC[CH2][Sn]1([CH2]CCC)[O]c2ccccc2NCC[N]1c1ccccc1O [Compound 628577]
Activity 2.5 uM: 1.45 | Activity 10 uM: 3.06

Oc1ccccc1[N]1CCNc2ccccc2[O][Sn]1([c]1ccccc1)[c]1ccccc1 [Compound 628578]
Activity 2.5 uM: 3.53

C=[CH][Sn]([CH]=C)([S]c1cccc2cccnc12)[S]c1cccc2cccnc12 [Compound 628594]
Activity 2.5 uM: 3.94

COc1cc[c]([Hg][n+]2c[nH]c3[nH]cnc(=S)c32)cc1 [Compound 631943]
Activity 2.5 uM: 6.31

Nc1nc(=S)c2c(nc[n]2[Hg][c]2ccc([N+](=O)[O-])cc2)[nH]1 [Compound 631945]
Activity 2.5 uM: 0.76 | Activity 10 uM: 5.72

Cc1cc[c]([Hg][S]C(=S)NNc2ccccc2)cc1 [Compound 631946]
Activity 2.5 uM: 13.13

COc1ccc(/C=N/Nc2nc(-c3cc4oc(=O)n(C)c4cc3Cl)cs2)cc1OC [Compound 632134]
Activity 2.5 uM: 1.26 | Activity 10 uM: 3.5

[Cl][Ni][Cl].c1ccc(P(CCP(CCP(c2ccccc2)c2ccccc2)CCP(c2ccccc2)c2ccccc2)c2ccccc2)cc1 [Compound 633334]
Activity 2.5 uM: 4.12 | Activity 10 uM: 28.14

F[P-](F)(F)(F)(F)F.[C-]#[O+].[C-]#[O+].[CH]1[CH][CH][CH][CH]1.[Mo].c1ccc(P(CC[As](c2ccccc2)c2ccccc2)CC[As](c2ccccc2)c2ccccc2)cc1 [Compound 633346]
Activity 2.5 uM: 8.05 | Activity 10 uM: 11.64
